Experimental data from article PMC8330742, “New benzothieno[2,3-c]pyridines as non-steroidal CYP17 inhibitors: design, synthesis, anticancer screening, apoptosis induction, and in silico ADME profile studies” (Journal of Enzyme Inhibition and Medicinal Chemistry, 2021).

Legend:
A549/ATCC = assay: NCI-60 SRB screen; assay type: cell-based, human; settings: Homo sapiens, single dose 10^−5 M, read-out: Growth inhibition (%)
NCI/ADR-RES = assay: NCI-60 SRB screen; assay type: cell-based, human; settings: Homo sapiens, single dose 10^−5 M, read-out: Growth inhibition (%)
CCRF-CEM = assay: NCI-60 SRB screen; assay type: cell-based; settings: Homo sapiens, single dose 10^−5 M, read-out: Growth inhibition (%)
UACC-62 = assay: NCI-60 SRB screen; assay type: cell-based, human; settings: Homo sapiens; UACC-62; single dose 10^−5 M; read-out: Growth inhibition (%)
SN12C = assay: NCI-60 SRB screen; assay type: cell-based, human; settings: Homo sapiens, SN12C; SN 12 C; single dose 10^−5 M; read-out: Growth inhibition (%)
OVCAR-3 = assay: NCI-60 SRB screen; assay type: cell-based, human; settings: Homo sapiens; OVCAR-3; single dose 10^−5 M; read-out: Growth inhibition (%)
MALME-3M = assay: NCI-60 SRB screen; assay type: cell-based, human; settings: Homo sapiens, single dose 10^−5 M, read-out: Growth inhibition (%)
786-0 = assay: NCI-60 SRB screen; assay type: cell-based; settings: Homo sapiens; 786-0; single dose 10^−5 M; read-out: Growth inhibition (%)
HOP-92 = assay: NCI-60 SRB screen; assay type: cell-based, human; settings: Homo sapiens; HOP-92; single dose 10^−5 M; read-out: Growth inhibition (%)
MDA-MB-435 = assay: NCI-60 SRB screen; assay type: cell-based; settings: Homo sapiens, MDA-MB-435, read-out: Growth inhibition (%)
UACC-257 = assay: NCI-60 SRB screen; assay type: cell-based, human; settings: Homo sapiens, UACC-257; UACC-275 (so in the source); single dose 10^−5 M; read-out: Growth inhibition (%)
SK-MEL-5 = assay: NCI-60 SRB screen; assay type: cell-based, human; settings: Homo sapiens; SK-MEL-5; single dose 10^−5 M; read-out: Growth inhibition (%)
CAKI-1 = assay: NCI-60 SRB screen; assay type: cell-based, human; settings: Homo sapiens; CAKI-1; single dose 10^−5 M; read-out: Growth inhibition (%)
LOX IMVI = assay: NCI-60 SRB screen; assay type: cell-based, human; settings: Homo sapiens, single dose 10^−5 M, read-out: Growth inhibition (%)
SF-268 = assay: NCI-60 SRB screen; assay type: cell-based, human; settings: Homo sapiens; SF-268; single dose 10^−5 M; read-out: Growth inhibition (%)
EKVX = assay: NCI-60 SRB screen; assay type: cell-based, human; settings: Homo sapiens, single dose 10^−5 M, read-out: Growth inhibition (%)
SF-295 = assay: NCI-60 SRB screen; assay type: cell-based, human; settings: Homo sapiens; SF-295; single dose 10^−5 M; read-out: Growth inhibition (%)
SK-MEL-2 = assay: NCI-60 SRB screen; assay type: cell-based, human; settings: Homo sapiens; SK-MEL-2; single dose 10^−5 M; read-out: Growth inhibition (%)
NCI-H460 = assay: NCI-60 SRB screen; assay type: cell-based, human; settings: Homo sapiens; NCI-H460; single dose 10^−5 M; read-out: Growth inhibition (%)
HCT-15 = assay: NCI-60 SRB screen; assay type: cell-based, human; settings: Homo sapiens; HCT-15; single dose 10^−5 M; read-out: Growth inhibition (%)
NCI-H522 = assay: NCI-60 SRB screen; assay type: cell-based, human; settings: Homo sapiens; NCI-H522; single dose 10^−5 M; read-out: Growth inhibition (%)
TK-10 = assay: NCI-60 SRB screen; assay type: cell-based, human; settings: Homo sapiens; TK-10; single dose 10^−5 M; read-out: Growth inhibition (%)
ACHN = assay: NCI-60 SRB screen; assay type: cell-based; settings: Homo sapiens, single dose 10^−5 M, read-out: Growth inhibition (%)
[1] = tested on: panel of 60 cancer cell lines; assay: NCI-60 SRB screen, mean or range over the panel; assay type: cell-based, human; settings: Homo sapiens; mean over the cell lines; single dose 10^−5 M; read-out: Mean growth inhibition (%)
M14 = assay: NCI-60 SRB screen; assay type: cell-based, human; settings: Homo sapiens; M14; single dose 10^−5 M; read-out: Growth inhibition (%)
IGROV1 = assay: NCI-60 SRB screen; assay type: cell-based, human; settings: Homo sapiens, IGROV-1; IGROV1; single dose 10^−5 M; read-out: Growth inhibition (%)
MOLT-4 = assay: NCI-60 SRB screen; assay type: cell-based; settings: Homo sapiens; MOLT-4; single dose 10^−5 M; read-out: Growth inhibition (%)
UO-31 = assay: NCI-60 SRB screen; assay type: cell-based, human; settings: Homo sapiens; UO-31; single dose 10^−5 M; read-out: Growth inhibition (%)
COLO 205 = assay: NCI-60 SRB screen; assay type: cell-based, human; settings: Homo sapiens; COLO 205; single dose 10^−5 M; read-out: Growth inhibition (%)
HCT-116 = assay: NCI-60 SRB screen; assay type: cell-based, human; settings: Homo sapiens; HCT-116; single dose 10^−5 M; read-out: Growth inhibition (%)
HL-60(TB) = assay: NCI-60 SRB screen; assay type: cell-based, human; settings: Homo sapiens; HL-60 (TB); single dose 10^−5 M; read-out: Growth inhibition (%)
HCC-2998 = assay: NCI-60 SRB screen; assay type: cell-based, human; settings: Homo sapiens; HCC-2998; single dose 10^−5 M; read-out: Growth inhibition (%)
HT-29 = assay: NCI-60 SRB screen; assay type: cell-based; settings: Homo sapiens; HT-29; single dose 10^−5 M; read-out: Growth inhibition (%)
SR = assay: NCI-60 SRB screen; assay type: cell-based; settings: Homo sapiens, single dose 10^−5 M, read-out: Growth inhibition (%)
NCI-H23 = assay: NCI-60 SRB screen; assay type: cell-based, human; settings: Homo sapiens; NCI-H23; single dose 10^−5 M; read-out: Growth inhibition (%)
NCI-H322M = assay: NCI-60 SRB screen; assay type: cell-based, human; settings: Homo sapiens, single dose 10^−5 M, read-out: Growth inhibition (%)
OVCAR-8 = assay: NCI-60 SRB screen; assay type: cell-based, human; settings: Homo sapiens; OVCAR-8; single dose 10^−5 M; read-out: Growth inhibition (%)
SW-620 = assay: NCI-60 SRB screen; assay type: cell-based; settings: Homo sapiens; SW-620; single dose 10^−5 M; read-out: Growth inhibition (%)
HOP-62 = assay: NCI-60 SRB screen; assay type: cell-based, human; settings: Homo sapiens; HOP-62; single dose 10^−5 M; read-out: Growth inhibition (%)
SK-MEL-28 = assay: NCI-60 SRB screen; assay type: cell-based; settings: Homo sapiens; SK-MEL-28; single dose 10^−5 M; read-out: Growth inhibition (%)
K-562 = assay: NCI-60 SRB screen; assay type: cell-based, human; settings: Homo sapiens, K562; K-562; single dose 10^−5 M; read-out: Growth inhibition (%)
RXF 393 = assay: NCI-60 SRB screen; assay type: cell-based, human; settings: Homo sapiens; RXF 393; single dose 10^−5 M; read-out: Growth inhibition (%)
OVCAR-4 = assay: NCI-60 SRB screen; assay type: cell-based, human; settings: Homo sapiens; OVCAR-4; single dose 10^−5 M; read-out: Growth inhibition (%)
KM12 = assay: NCI-60 SRB screen; assay type: cell-based, human; settings: Homo sapiens; KM12; single dose 10^−5 M; read-out: Growth inhibition (%)
NCI-H226 = assay: NCI-60 SRB screen; assay type: cell-based, human; settings: Homo sapiens; NCI-H226; single dose 10^−5 M; read-out: Growth inhibition (%)

With `O=C1NC(c2ccccc2[N+](=O)[O-])c2sc3c(F)cccc3c2C1Cl` (stereo not drawn) [Compound 4c, 4-Chloro-8-fluoro-1-(2-nitrophenyl)-1,2-dihydro[1]benzothieno[2,3-c] pyridine-3(4H)-one] the inhibition at 10 µM (A549/ATCC) was 3.15%, the inhibition at 10 µM (NCI/ADR-RES) was -1.98% and the inhibition at 10 µM (CCRF-CEM) was -0.04%. For the same compound, the inhibition at 10 µM (UACC-62) was 20.8%, the inhibition at 10 µM (SN12C) was 4.76% and the inhibition at 10 µM (OVCAR-3) was 7.25%. It also gave an inhibition at 10 µM (MALME-3M) of 9.46%, an inhibition at 10 µM (786-0) of -16.9% and an inhibition at 10 µM (HOP-92) of -11.2%. It also gave an inhibition at 10 µM (MDA-MB-435) of -7.17%, an inhibition at 10 µM (UACC-257) of -0.18% and an inhibition at 10 µM (SK-MEL-5) of 8.45%. For the same compound, the inhibition at 10 µM (CAKI-1) was 12.4%, the inhibition at 10 µM (LOX IMVI) was 8.72% and the inhibition at 10 µM (SF-268) was 10.5%. It also gave an inhibition at 10 µM (EKVX) of 11.8%, an inhibition at 10 µM (SF-295) of -7.26% and an inhibition at 10 µM (SK-MEL-2) of -16.7%. It also gave an inhibition at 10 µM (NCI-H460) of 17.2%, an inhibition at 10 µM (HCT-15) of -1.51% and an inhibition at 10 µM (NCI-H522) of 7.95%. It also gave an inhibition at 10 µM (TK-10) of -52%, an inhibition at 10 µM (ACHN) of -4.45% and an inhibition at 10 µM [1] of 3%. It also gave an inhibition at 10 µM (M14) of 1.7%, an inhibition at 10 µM (IGROV1) of 33% and an inhibition at 10 µM (MOLT-4) of 11.8%. For the same compound, the inhibition at 10 µM (UO-31) was 33.2%, the inhibition at 10 µM (COLO 205) was -21.6% and the inhibition at 10 µM (HCT-116) was 11.4%. For the same compound, the inhibition at 10 µM (HL-60(TB)) was -5.53%, the inhibition at 10 µM (HCC-2998) was -27.4% and the inhibition at 10 µM (HT-29) was -9.93%. It also gave an inhibition at 10 µM (SR) of 0.2%, an inhibition at 10 µM (NCI-H23) of 6.95% and an inhibition at 10 µM (NCI-H322M) of -4.23%. For the same compound, the inhibition at 10 µM (OVCAR-8) was 1.73%, the inhibition at 10 µM (SW-620) was 2.43% and the inhibition at 10 µM (HOP-62) was 3.32%. It also gave an inhibition at 10 µM (SK-MEL-28) of 8.45%, an inhibition at 10 µM (K-562) of 33.5% and an inhibition at 10 µM (RXF 393) of -17.3%. For the same compound, the inhibition at 10 µM (OVCAR-4) was 11.1%, the inhibition at 10 µM (KM12) was -0.66% and the inhibition at 10 µM (NCI-H226) was 18.5%.
